Assay results: publication PMC11984392, “EphA2-targeted alpha-particle theranostics for enhancing PDAC treatment” (Theranostics, 2025)
Where two headings read alike, the source gives them in different places. *1 amine or outer side, *2 acyl side, *3 side chain or, on linkers, in order; H or OH if unused. Where a SMILES comes first, the peptide text is derived from it. Bridges are numbered along the chain shown (N, C = ends). [ ]: non-standard residue; d: D form. The star is where a group is joined. TATA = O=C(CC[*:1])N1CN(C(=O)CC[*:2])CN(C(=O)CC[*:3])C1; NOTA = O=C(O)CN1CCN(CC(=O)O)CCN(CC(=O)*)CC1; Hyp = O=C(O)[C@@H]1C[C@@H](O)CN1; hArg = N=C(N)NCCCC[C@H](N)C(=O)O; PEG2 = NCCOCCOCCC(=O)O; Sar = CNCC(=O)O

Legend:
[1] = In vitro stability of radiotracers in human serum; type: in vitro ADME; conditions: radio-RP-HPLC after ultrafiltration (10 kDa)
Procedure: The stability of the radiotracers was assessed in saline and human serum at 37 °C to mimic physiological conditions. Approximately 1.5 mCi of the radiotracer, prepared in 100-150 µL of saline, was added to 0.5 mL of either saline or human serum in separate microcentrifuge tubes. The mixtures were gently vortexed and then incubated at 37 °C in an incubator. At predetermined time-points (1, 2, and 3 h), 100 µL aliquots were collected from the incubation mixtures for analysis. For serum samples, proteins were removed by adding 100 µL of saline and 50 µL of ethanol, followed by ultrafiltration using 10 kDa centrifugal filters made of regenerative cellulose membranes. The filtration process was performed by centrifugation at 14,000 rpm for 10 min and repeated once more to ensure complete protein removal. The filtrate was collected for analysis. The radiochemical integrity of the radiotracer in both saline and serum was evaluated using radio-RP-HPLC.

Ex vivo biodistribution = type: in vivo, NSG mice; conditions: both sexes, NSG, mouse, total radioactivity, 60 min p.i., mean ± SEM (n = 4 or 5)
Procedure: Animal studies were performed under Johns Hopkins University Animal Care and Use Committee (ACUC)-approved protocol (Principal investigator: Sridhar Nimmagadda, Ph.D. and Protocol number M021M175). Male and Female NSG mice (5-6 weeks old) were purchased from JHU immunocompromised core and used to establish xenografts by administering cells subcutaneously (top right flank, unless otherwise noted) to form various tumor models within 3-4 weeks. Following cell numbers were used: Panc1, AsPC1, BxPC3 (1 M), Hs766T and SU8686 (2 M), CFPAC and Panc1005 (5 M). Imaging or biodistribution studies (n = 3-5) were conducted on mice with tumor volumes of 100-200 mm^3. The Panc1 orthotopic tumor model was established by surgically implanting a 3-5 mm^3 section of Panc1 tumor xenograft directly onto the pancreas. The implanted tumors were allowed to grow and were ready for imaging after 10 days of implantation.
Mice with 100-200 mm^3 tumor volume were used for ex vivo biodistribution studies. For radiotracer pharmacokinetics and dosimetry studies, mice with Panc1 tumor xenograft received ~80 µCi (2.96 MBq) [^68Ga]AJ201 and were sacrificed at pre-determined time points (5, 30, 60, 90 and 120 min). All other mice were injected with ~50 µCi (1.85 MBq; 0.2 to 0.5 nmol) Ga-68 labeled radiotracer and were sacrificed at 60 min. The selected tissues were collected, weighed, counted, and their %ID/g values calculated for biodistribution analysis. For pharmacokinetics and dosimetry studies, selected tissues included blood, muscle, tumor, thymus, heart, lung, liver, pancreas, stomach, small intestine, large intestine, spleen, adrenals, kidney, bladder, femur, brain and tumor xenografts. For other studies, selected tissues were blood, muscle, tumor, heart, lung, liver, pancreas, small intestine, spleen, kidney.

CC(C)C[C@@H]1NC(=O)[C@@H]2CSCCC(=O)N3CN(CN(C3)C(=O)CCSC[C@H](NC(=O)[C@H](CC(=O)O)NC(=O)[C@H](CCCCNC(=N)N)NC(=O)[C@H](C)NC(=O)CNC(=O)CN(C)C(=O)CN(C)C(=O)CN(C)C(=O)[C@H](CCCNC(=N)N)NC(=O)CNC(=O)CCOCCOCCNC(=O)CN3CCN(CC(=O)O)CCN(CC(=O)O)CC3)C(=O)N3C[C@H](O)C[C@H]3C(=O)N[C@@H](CC(C)C)C(=O)N[C@@H](C(C)C)C(=O)N[C@@H](CC(N)=O)C(=O)N3CCC[C@H]3C(=O)N[C@@H](CC(C)C)C(=O)N2)C(=O)CCSC[C@@H](C(N)=O)NC(=O)[C@H](CCCCNC(=N)N)NC(=O)[C@H](Cc2c[nH]c3ccccc23)NC(=O)[C@@H](CC(=O)O)NC(=O)[C@@H]2CCCN2C(=O)[C@H](Cc2c[nH]cn2)NC1=O [[^68Ga]AJ201, metal not drawn] ({NOTA-PEG2}-GR[Sar][Sar][Sar]GA[hArg]DC[Hyp]LVNPLCLHP[dD]W[hArg]C-NH2; linker 10-17-24 via TATA)
Stability in human serum (radio-HPLC finding) ([1]; 37 °C, 1, 2 and 3 h, ~1.5 mCi in 0.5 mL): stable without noticeable degradation or impurity formation | Time of stability in human serum ([1]; 37 °C): at least 3 h | tissue uptake at 1 h (Ex vivo biodistribution; blood, AsPC1 xenograft, read-out: Blood uptake): 3.32 ± 0.24 %ID/g | tissue uptake at 1 h (Ex vivo biodistribution; blood, BxPC3 xenograft, read-out: Blood uptake): 0.58 ± 0.04 %ID/g | tissue uptake at 1 h (Ex vivo biodistribution; blood, CFPAC xenograft, read-out: Blood uptake): 0.69 ± 0.21 %ID/g | tissue uptake at 1 h (Ex vivo biodistribution; blood, Hs766T xenograft, read-out: Blood uptake): 1.39 ± 0.3 %ID/g | tissue uptake at 1 h (Ex vivo biodistribution; blood, Panc1005 xenograft, read-out: Blood uptake): 0.44 ± 0.05 %ID/g | tissue uptake at 1 h (Ex vivo biodistribution; blood, Su8686 xenograft, read-out: Blood uptake): 0.71 ± 0.18 %ID/g | tissue uptake at 1 h (Ex vivo biodistribution; heart, AsPC1 xenograft, read-out: Heart uptake): 1.25 ± 0.1 %ID/g | tissue uptake at 1 h (Ex vivo biodistribution; heart, CFPAC xenograft, read-out: Heart uptake): 0.34 ± 0.08 %ID/g | tissue uptake at 1 h (Ex vivo biodistribution; heart, Hs766T xenograft, read-out: Heart uptake): 0.9 ± 0.25 %ID/g | tissue uptake at 1 h (Ex vivo biodistribution; heart, Panc1005 xenograft, read-out: Heart uptake): 0.2 ± 0.02 %ID/g | tissue uptake at 1 h (Ex vivo biodistribution; heart, Su8686 xenograft, read-out: Heart uptake): 0.25 ± 0.06 %ID/g | tissue uptake at 1 h (Ex vivo biodistribution; kidney, AsPC1 xenograft, read-out: Kidney uptake): 59.6 ± 2.86 %ID/g | tissue uptake at 1 h (Ex vivo biodistribution; kidney, BxPC3 xenograft, read-out: Kidney uptake): 59 ± 7.17 %ID/g | tissue uptake at 1 h (Ex vivo biodistribution; kidney, CFPAC xenograft, read-out: Kidney uptake): 69.1 ± 4.56 %ID/g | tissue uptake at 1 h (Ex vivo biodistribution; kidney, Hs766T xenograft, read-out: Kidney uptake): 52.6 ± 4.07 %ID/g | tissue uptake at 1 h (Ex vivo biodistribution; kidney, Panc1005 xenograft, read-out: Kidney uptake): 67 ± 6.9 %ID/g | tissue uptake at 1 h (Ex vivo biodistribution; kidney, Su8686 xenograft, read-out: Kidney uptake): 37.7 ± 2.64 %ID/g | tissue uptake at 1 h (Ex vivo biodistribution; liver, AsPC1 xenograft, read-out: Liver uptake): 1.59 ± 0.07 %ID/g | tissue uptake at 1 h (Ex vivo biodistribution; liver, BxPC3 xenograft, read-out: Liver uptake): 0.42 ± 0.02 %ID/g | tissue uptake at 1 h (Ex vivo biodistribution; liver, CFPAC xenograft, read-out: Liver uptake): 0.43 ± 0.09 %ID/g | tissue uptake at 1 h (Ex vivo biodistribution; liver, Hs766T xenograft, read-out: Liver uptake): 0.89 ± 0.21 %ID/g | tissue uptake at 1 h (Ex vivo biodistribution; liver, Panc1005 xenograft, read-out: Liver uptake): 0.29 ± 0.03 %ID/g | tissue uptake at 1 h (Ex vivo biodistribution; liver, Su8686 xenograft, read-out: Liver uptake): 0.34 ± 0.06 %ID/g | tissue uptake at 1 h (Ex vivo biodistribution; lung, AsPC1 xenograft, read-out: Lung uptake): 2.78 ± 0.13 %ID/g | tissue uptake at 1 h (Ex vivo biodistribution; lung, BxPC3 xenograft, read-out: Lung uptake): 0.7 ± 0.04 %ID/g | tissue uptake at 1 h (Ex vivo biodistribution; lung, CFPAC xenograft, read-out: Lung uptake): 0.89 ± 0.2 %ID/g | tissue uptake at 1 h (Ex vivo biodistribution; lung, Hs766T xenograft, read-out: Lung uptake): 1.71 ± 0.55 %ID/g | tissue uptake at 1 h (Ex vivo biodistribution; lung, Panc1005 xenograft, read-out: Lung uptake): 0.54 ± 0.05 %ID/g | tissue uptake at 1 h (Ex vivo biodistribution; lung, Su8686 xenograft, read-out: Lung uptake): 0.76 ± 0.16 %ID/g | tissue uptake at 1 h (Ex vivo biodistribution; muscle, AsPC1 xenograft, read-out: Muscle uptake): 0.41 ± 0.03 %ID/g | tissue uptake at 1 h (Ex vivo biodistribution; muscle, BxPC3 xenograft, read-out: Muscle uptake): 0.18 ± 0.01 %ID/g | tissue uptake at 1 h (Ex vivo biodistribution; muscle, Hs766T xenograft, read-out: Muscle uptake): 0.46 ± 0.13 %ID/g | tissue uptake at 1 h (Ex vivo biodistribution; muscle, Panc1005 xenograft, read-out: Muscle uptake): 0.11 ± 0.01 %ID/g | tissue uptake at 1 h (Ex vivo biodistribution; muscle, Su8686 xenograft, read-out: Muscle uptake): 0.16 ± 0.04 %ID/g | tissue uptake at 1 h (Ex vivo biodistribution; pancreas, AsPC1 xenograft, read-out: Pancreas uptake): 0.65 ± 0.04 %ID/g | tissue uptake at 1 h (Ex vivo biodistribution; pancreas, BxPC3 xenograft, read-out: Pancreas uptake): 0.25 ± 0.02 %ID/g | tissue uptake at 1 h (Ex vivo biodistribution; pancreas, CFPAC xenograft, read-out: Pancreas uptake): 0.32 ± 0.07 %ID/g | tissue uptake at 1 h (Ex vivo biodistribution; pancreas, Hs766T xenograft, read-out: Pancreas uptake): 0.61 ± 0.22 %ID/g | tissue uptake at 1 h (Ex vivo biodistribution; pancreas, Panc1005 xenograft, read-out: Pancreas uptake): 0.21 ± 0.03 %ID/g | tissue uptake at 1 h (Ex vivo biodistribution; pancreas, Su8686 xenograft, read-out: Pancreas uptake): 0.22 ± 0.05 %ID/g | tissue uptake at 1 h (Ex vivo biodistribution; small intestine, AsPC1 xenograft, read-out: Small intestine uptake): 1.12 ± 0.08 %ID/g | tissue uptake at 1 h (Ex vivo biodistribution; small intestine, BxPC3 xenograft, read-out: Small intestine uptake): 0.32 ± 0.02 %ID/g | tissue uptake at 1 h (Ex vivo biodistribution; small intestine, Hs766T xenograft, read-out: Small intestine uptake): 0.62 ± 0.02 %ID/g | tissue uptake at 1 h (Ex vivo biodistribution; small intestine, Panc1005 xenograft, read-out: Small intestine uptake): 0.25 ± 0.03 %ID/g | tissue uptake at 1 h (Ex vivo biodistribution; small intestine, Su8686 xenograft, read-out: Small intestine uptake): 0.29 ± 0.05 %ID/g | tissue uptake at 1 h (Ex vivo biodistribution; spleen, AsPC1 xenograft, read-out: Spleen uptake): 1.61 ± 0.11 %ID/g
